pIC50: −log10 of the molar value.
How the values were obtained:
MRE11 = molecular target: T1, MRE11 (Homo sapiens, UniProt P49959); test: HTS nuclease assay (cleavage of CY5/BBQ-quenched 5' overhang DNA substrate); assay type: biochemical; settings: in vitro HTS nuclease assay; 18 nM MRE11, 40 nM DNA substrate; analysis at t=4 h
T1 sequence (P49959 1-708): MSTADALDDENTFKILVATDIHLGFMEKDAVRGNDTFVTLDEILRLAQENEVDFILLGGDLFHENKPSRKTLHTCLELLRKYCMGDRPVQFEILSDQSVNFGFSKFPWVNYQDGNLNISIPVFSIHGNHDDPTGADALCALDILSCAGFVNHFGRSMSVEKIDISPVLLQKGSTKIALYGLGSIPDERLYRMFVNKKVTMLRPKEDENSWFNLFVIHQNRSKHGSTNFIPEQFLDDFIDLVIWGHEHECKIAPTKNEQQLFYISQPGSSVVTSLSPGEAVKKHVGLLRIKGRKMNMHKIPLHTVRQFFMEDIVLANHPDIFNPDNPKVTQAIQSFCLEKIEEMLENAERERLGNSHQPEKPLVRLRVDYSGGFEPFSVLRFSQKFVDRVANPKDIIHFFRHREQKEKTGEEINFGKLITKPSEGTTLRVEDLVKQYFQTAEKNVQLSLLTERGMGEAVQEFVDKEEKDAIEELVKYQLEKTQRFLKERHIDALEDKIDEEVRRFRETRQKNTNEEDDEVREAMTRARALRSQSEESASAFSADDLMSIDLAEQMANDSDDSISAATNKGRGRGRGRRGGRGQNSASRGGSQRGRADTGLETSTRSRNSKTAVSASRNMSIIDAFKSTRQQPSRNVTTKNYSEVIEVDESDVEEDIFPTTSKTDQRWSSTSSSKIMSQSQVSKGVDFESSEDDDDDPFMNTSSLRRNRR

DR-GFP U2OS cells = test: HR assay (GFP fluorescence after I-SceI transfection, flow cytometry); assay type: cell-based; settings: Homo sapiens, inhibitor at 25 μM, 72 hours after transfection
Experimental: DR-GFP U2OS cells (Methods in Molecular Biology 2012, 920, 379.) were transfected with 2.5 μg of I-SceI-expressing pCAGGS vector and treated with the inhibitors at 25 μM concentration. 72 hours after the transfection, the cells were trypsinized and resuspended in 3% BSA in PBS. GFP fluorescence detection was carried out using a BD FACSVerse flow cytometer and data analyzed with FlowJo software.

[1] = system: Phosphorylated RPA32 S4/S8 in U2OS cells; test: RPA assay (RPA phosphorylation after camptothecin); assay type: cell-based; settings: Homo sapiens, U2OS cells pre-treated 1 h, then 1 uM camptothecin 1 h; for inhibition at 10 µM: inhibitor at 10 μM
Experimental: U2OS cells were pre-treated for 1 h with MRE11 inhibitors followed by addition of 1 uM camptothecin for 1 h. Cells were lysed in SDS-PAGE loading buffer, sonicated and boiled at 70° C. for 10 min. Equal amounts of protein (50-100 μg) were analysed by Tris-glycine gel electrophoresis Expression levels were quantified using Multi Gauge software and expressed relative to loading control. Phosphorylated RPA32 S4/S8 (A300-245A, Bethyl Laboratories) 1:1000 dilution was used.

SMILES	pIC50 (MRE11)	inhibition at 25 µM (DR-GFP U2OS cells) [%]	inhibition at 25 µM ([1]; inhibitor at 25 μM) [%]	inhibition at 10 µM [1] [%]
N#C/C(=C\c1ccc(O)c([N+](=O)[O-])c1)C(=O)Nc1nc(-c2ccccc2)cs1 [Preparative Example 208, (E)-2-cyano-3-(4-hydroxy-3-nitrophenyl)-N-(4-phenylthiazol-2-yl)acrylamide]	4.05 to 5.00	50 to 75		
N#C/C(=C\c1ccc([N+](=O)[O-])cc1)C(=O)Nc1nc(-c2ccccc2)cs1 [Preparative Example 209, (E)-2-cyano-3-(4-nitrophenyl)-N-(4-phenylthiazol-2-yl)acrylamide]	4.05 to 5.00	50 to 75		
N#C/C(=C\c1cccc(C(=O)O)c1)C(=O)Nc1nc(-c2ccccc2)cs1 [Preparative Example 210, (E)-3-(2-cyano-3-oxo-3-((4-phenylthiazol-2-yl)amino)prop-1-en-1-yl)benzoic acid]	4.05 to 5.00	< 50		
N#C/C(=C\c1ccc(O)c(-c2ccccc2)c1)C(=O)Nc1nc(-c2ccccc2)cs1 [Preparative Example 211, (E)-2-cyano-3-(6-hydroxy-[1,1′-biphenyl]-3-yl)-N-(4-phenylthiazol-2-yl)acrylamide]	4.05 to 5.00	< 50		
N#C/C(=C\c1cc(F)c(O)c(F)c1)C(=O)Nc1nc(-c2ccccc2)cs1 [Preparative Example 212, (E)-2-cyano-3-(3,5-difluoro-4-hydroxyphenyl)-N-(4-phenylthiazol-2-yl)acrylamide]	4.05 to 5.00	< 50		
N#C/C(=C\c1ccc(F)c(F)c1)C(=O)Nc1nc(-c2ccccc2)cs1 [Preparative Example 213, (E)-2-cyano-3-(3,4-difluorophenyl)-N-(4-phenylthiazol-2-yl)acrylamide]	4.05 to 5.00	< 50		
N#C/C(=C\c1ccc2[nH]c(=O)[nH]c2c1)C(=O)Nc1nc(-c2ccccc2)cs1 [Preparative Example 216, (E)-2-cyano-3-(2-oxo-2,3-dihydro-1H-benzo[d]imidazol-5-yl)-N-(4-phenylthiazol-2-yl)acrylamide]	4.05 to 5.00	< 50		
N#C/C(=C\c1ccc2c(c1)OCC(=O)N2)C(=O)Nc1nc(-c2ccccc2)cs1 [Preparative Example 220, (E)-2-cyano-3-(3-oxo-3,4-dihydro-2H-benzo[b][1,4]oxazin-7-yl)-N-(4-phenylthiazol-2-yl)acrylamide]	4.05 to 5.00	50 to 75		
CC(=O)Nc1ccc(/C=C(\C#N)C(=O)Nc2nc(-c3ccccc3)cs2)cc1O [Preparative Example 223, (E)-3-(4-acetamido-3-hydroxyphenyl)-2-cyano-N-(4-phenylthiazol-2-yl)acrylamide]	4.05 to 5.00	< 50		
Cc1cc(O)ccc1/C=C(\C#N)C(=O)Nc1nc(-c2ccccc2)cs1 [Preparative Example 225, (E)-2-cyano-3-(4-hydroxy-2-methylphenyl)-N-(4-phenylthiazol-2-yl)acrylamide]	4.05 to 5.00	< 50		
N#C/C(=C\c1ccc(O)cc1F)C(=O)Nc1nc(-c2ccccc2)cs1 [Preparative Example 226, (E)-2-cyano-3-(2-fluoro-4-hydroxyphenyl)-N-(4-phenylthiazol-2-yl)acrylamide]	4.05 to 5.00	> 75		
N#C/C(=C\c1ccc(O)c2ccccc12)C(=O)Nc1nc(-c2ccccc2)cs1 [Preparative Example 227, (E)-2-cyano-3-(4-hydroxynaphthalen-1-yl)-N-(4-phenylthiazol-2-yl)acrylamide]	5.00 to 5.70	> 75		
N#C/C(=C\c1cccc(C(F)(F)F)c1)C(=O)Nc1nc(-c2ccccc2)cs1 [Preparative Example 231, (E)-2-cyano-N-(4-phenylthiazol-2-yl)-3-(3-(trifluoromethyl)phenyl)acrylamide]	5.00 to 5.70	< 50		
N#C/C(=C\c1ccc(O)c(O)c1)C(=O)Nc1nc(-c2ccccc2)c(-c2cnccn2)s1 [Preparative Example 238, (E)-2-cyano-3-(3,4-dihydroxyphenyl)-N-(4-phenyl-5-(pyrazin-2-yl)thiazol-2-yl)acrylamide]	> 5.70	50 to 75		
N#C/C(=C\c1cc(Cl)c(O)c(Cl)c1)C(=O)Nc1nc(-c2ccccn2)cs1 [Preparative Example 243, (E)-2-cyano-3-(3,5-dichloro-4-hydroxyphenyl)-N-(4-(pyridin-2-yl)thiazol-2-yl)acrylamide]	> 5.70	50 to 75		100
Cc1cc(C(C)(C)C)cc(C)c1-c1csc(NC(=O)/C(C#N)=C/c2ccc(O)c(O)c2)n1 [Preparative Example 246, (E)-N-(4-(4-(tert-butyl)-2,6-dimethylphenyl)thiazol-2-yl)-2-cyano-3-(3,4-dihydroxyphenyl)acrylamide]	> 5.70	> 75		
CC(C)(C)c1cccc(-c2csc(NC(=O)/C(C#N)=C/c3ccc(O)c(O)c3)n2)c1 [Preparative Example 247, (E)-N-(4-(3-(tert-butyl)phenyl)thiazol-2-yl)-2-cyano-3-(3,4-dihydroxyphenyl)acrylamide]	5.00 to 5.70	50 to 75		

The next lines start with results.

pIC50 (MRE11)	SMILES	inhibition at 25 µM (DR-GFP U2OS cells) [%]	inhibition at 25 µM ([1]; inhibitor at 25 μM) [%]	inhibition at 10 µM [1] [%]
> 5.70	N#C/C(=C\c1ccc(O)c(O)c1)C(=O)Nc1nc(-c2ccc(Br)s2)cs1 [Preparative Example 219, (E)-N-(4-(5-bromothiophen-2-yl)thiazol-2-yl)-2-cyano-3-(3,4-dihydroxyphenyl) acrylamide]	> 75		
> 5.70	Cc1ccc(-c2csc(NC(=O)/C(C#N)=C/c3ccc(O)c(O)c3)n2)s1 [Preparative Example 229, (E)-2-cyano-3-(3,4-dihydroxyphenyl)-N-(4-(5-methylthiophen-2-yl)thiazol-2-yl)acrylamide]	50 to 75		
> 5.70	Cc1ccc(-c2csc(NC(=O)/C(C#N)=C/c3ccc(O)c(O)c3)n2)cn1 [Preparative Example 232, (E)-2-cyano-3-(3,4-dihydroxyphenyl)-N-(4-(6-methylpyridin-3-yl)thiazol-2-yl)acrylamide]	< 50		
> 5.70	N#C/C(=C\c1ccc(O)c(O)c1)C(=O)Nc1nc(-c2cccc(F)c2)cs1 [Preparative Example 236, (E)-2-cyano-3-(3,4-dihydroxyphenyl)-N-(4-(3-fluorophenyl)thiazol-2-yl)acrylamide]	50 to 75		
> 5.70	Cc1cccnc1-c1csc(NC(=O)/C(C#N)=C/c2ccc(O)c(O)c2)n1 [Preparative Example 239, (E)-2-cyano-3-(3,4-dihydroxyphenyl)-N-(4-(3-methylpyridin-2-yl)thiazol-2-yl)acrylamide]	> 75		
> 5.70	COc1ccc(-c2csc(NC(=O)/C(C#N)=C/c3ccc(O)c(O)c3)n2)cn1 [Preparative Example 241, (E)-2-cyano-3-(3,4-dihydroxyphenyl)-N-(4-(6-methoxypyridin-3-yl)thiazol-2-yl)acrylamide]	< 50	75	
> 5.70	COc1cccnc1-c1csc(NC(=O)/C(C#N)=C/c2ccc(O)c(O)c2)n1 [Preparative Example 242, (E)-2-cyano-3-(3,4-dihydroxyphenyl)-N-(4-(3-methoxypyridin-2-yl)thiazol-2-yl)acrylamide]	> 75		95
